For twelve substances, IC50 and IC90 results are on record in US5968751A, “Method for detecting the presence of protein C antibody in a fluid sample” (The Scripps Research Institute, priority 1997, dated 1999).

Where two headings read alike, the source gives them in different places. No end group written: not given here. Bounds are passed on as bounds.

What all share (assay type): biochemical
One test concerns the target Factor IXa (Homo sapiens, UniProt P00740). The experiment in a line: Factor IXa-1 Stage clotting assay. The procedure: The Factor IXa-1 Stage assay was conducted essentially as the Factor Xa-1 Stage clotting assay above, except that Factor Xa was omitted, and Factor IXa was added in its place. In that assay, the IC50 for peptides X404-418, X415-429, IX395-409, IX400-414, IX315-330, and IX321-335 were 50, 30, 25, 50, 30 and 30.

A further test concerns the target T1, tenase (Homo sapiens, UniProt P00740).
T1 construct: 30 μl of 3.5 nM factor IXaβ (Enzyme Research Labs) in BBS+OV; purchased Enzyme Research Labs (factor IXaβ, factor X); Armour Pharmaceutical, Chicago (Monoclate P)
The experiment in a line: tenase assay (Factor Xa generation). Particulars: read-out: IC50 inhibition of tenase. The procedure:
The tenase assay was conducted both in the presence and absence of Factor VIIIa. The procedure for the tenase assay varied depending on this variable and is described hereafter.
Peptides prepared in Example 1 were dissolved in water and then 1/2 into 50 mM Barbital, 200 mM NaCl, 0.2% NaN3, 2.5 mg/ml Ovalbumin (5 times recrystallized, salt free, from American Biorganics Inc., New York, pH=7.5). […]. Before using them, they were made 250 μM into BBs +1.25 mg/ml Ovalbumin (BBS+OV) containing CaCl2 for a final concentration of 25 mM and they were preincubated for 10 minutes at 37° C. These vesicles were allowed to cool to room temperature before being added to the reaction mixture. Monoclate P (Armour Pharmaceutical, Chicago) 114 U VIII:C/ml frozen in water was thawed at 37° C. and immediately diluted to 6 U/ml into BBS+OV (22° C.). A 0.35 nM thrombin-containing solution (Enzyme Research Labs., Southbend, Ind.) was prepared by admixing 1/100 volume of stock solution containing 35 nM in BBS+OV, and maintained for 3 minutes at 22° C. Thrombin activity was stopped by adding 1/100 volume of a 50 μM stock solution in 1 mM HCl of Phe-Pro-Arg-Chloromethyl ketone (PPACK, Bachem Feinchmikallen AG, Bubendorf, Switzerland). […] The thrombin treated Monoclate P was used immediately in the Xa generation assay.
For the assay, 30 μl of peptide dilutions or BBS+OV as 0 μM peptide control were admixed with 30 μl of thrombin-treated Monoclate P and maintained 10 minutes at 22° C. Then 30 μl of Cacl2 -phospholipid vesicles prepared as described above were added, followed immediately by 30 μl of 3.5 nM factor IXaβ (Enzyme Research Labs) in BBS+OV. The reaction was started by adding 30 μl of 250 nM factor X (Enzyme Research Labs) in BBS+OV. All reagents were at 22° C.
Aliquots of 20 μl were drawn at time 0, 1, 2, 3, 4 and 5 minutes of maintenance at 22° C. and diluted to 160 μl of 50 mM TrisHCl, 100 mM NaCl, 5 mM EDTA and 0.1 mg/ml Ovalbumin pH=8.0. Once all aliquots were drawn, 20 μl 2.0 mM S-2765 were added and the increase of A 405 at 22° C. was recorded in a model EL 312 Microplate Biokinetics Reader (BIO-TEK Instruments Inc., Vermont).
No amidolytic activity was observed when factor X was omitted from the reaction mixture.
Phospholipid vesicles prepared as described above were admixed with BBS+OV containing CaCl2 to obtain final concentrations of 312.5 μM vesicles and 20 mM CaCl2, and were premaintained for 10 minutes at 37° C. Before admixing, all the reagents were maintained for 5 minutes in a 37° C. waterbath.
For the assay, 100 μl of the phospholipid CaCl2 mix were admixed with 100 μl of peptide dilutions in BBS+OV or BBS+OV (as 0 μM peptide control) and 25 μl of 100 nM factor IXaβ in BBS+OV. The reaction was started immediately by adding 25 μl of 10 μM factor X in BBS+OV. All experiments were done at 37° C.
Aliquots of 40 μl were drawn at time 0, 5, 10, 15, 20 and 25 minutes of incubation at 37° C. and diluted to 140 μl 50 mM TrisHCl, 100 mM NaCl, 10 mM EDTA, and 1.25 mg/ml Ovalbumin pH=8.0. Once all aliquots were drawn, 20 μl 20.0 mM S-2765 were added and the increase of A 405 at 22° C. was recorded in a model EL 312 Microplate Biokinetics Reader.

The target in another test is T2, Factor Xa (Homo sapiens, UniProt P00742).
T2 construct: purchased Enzyme Research Laboratories, Southbend, Ind
T2 sequence (P00742 41-179 limits assumed): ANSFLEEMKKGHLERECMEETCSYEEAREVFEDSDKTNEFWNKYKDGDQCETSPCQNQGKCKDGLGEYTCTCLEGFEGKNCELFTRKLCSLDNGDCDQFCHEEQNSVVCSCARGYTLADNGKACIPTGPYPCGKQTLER
T2 sequence (P00742 235-488 limits assumed): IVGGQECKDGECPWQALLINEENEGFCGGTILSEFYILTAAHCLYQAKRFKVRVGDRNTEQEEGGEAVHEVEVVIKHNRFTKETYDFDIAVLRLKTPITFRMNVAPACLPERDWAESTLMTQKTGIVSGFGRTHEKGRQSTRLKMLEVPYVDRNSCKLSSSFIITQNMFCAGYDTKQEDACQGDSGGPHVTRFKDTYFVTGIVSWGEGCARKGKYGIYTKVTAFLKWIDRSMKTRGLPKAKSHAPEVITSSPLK
The experiment in a line: Factor Xa clotting activity in NHP without added APC (Factor Xa-1 Stage clotting assay).

The target of the next test is APC (Homo sapiens, UniProt P04070). The experiment in a line: APTT and Xa-1-stage coagulation assays, inhibition of APC anticoagulant activity. Further details: Protein C consists of a 155 amino acid residue light chain and a 262 amino acid residue heavy chain; from tissue; host or cells: human plasma factor IX concentrate. As to conditions: read-out: IC90 ** μM (concentration of peptide that inhibits 90% of APC anticoagulant activity). As to the method:
The effect of the synthetic peptides on APC anticoagulant activity were determined using the APTT assay in the presence of either normal citrate anticoagulated plasma (NHP) or protein S depleted plasma (PSDP). The assays were performed essentially as described. See Marlar et al., Blood, 59:1067-1072 […]; Suzuki et al., J. Biol. Chem., 258:163-168 (1983); Gruber et al., Blood, 73:639-642 (1989); Ohlin et al., Biochem., 29:644-651 (1990). NHP was purchased from George King Bio-Medical, Inc. (Overland Park, Kans.). PSDP was prepared from a normal human citrate-anticoagulated plasma pool from ten healthy donors. Protein S was immunodepleted from the NHP by immunoaffinity chromatography of NHP over an anti-protein S antibody column to form PSDP. The anti-protein S antibody column was prepared by coupling 100 mg of a monoclonal, high-affinity, calcium-independent anti-PS antibody, designated S7, to 30 ml of CNBr-activated Sepharose 4B (Pharmacia) as described in Example 2cl).
For the APTT assay, APC was prepared as described in Example 2c2). […] The concentration of the APC used in the assay was initially optimized with respect to the sensitivity of the assay towards APC-induced prolongation of clotting time compared to clotting time without APC.
Once the optimal concentration of APC was determined, peptides from the heavy and light chains of PC and control scrambled peptides listed below in Example 5a2) in Tables 6 and 7 were then separately admixed for a final concentration of 500 μM with 10 nM APC in 100 μl of TBS-BSA at pH 7.4 to form peptide-APC admixtures. Peptides were prepared as described in Example 1. The resulting admixtures were maintained for ten minutes at 37° C. Separate aliquots of peptides maintained under the same conditions in the absence of APC served as controls for the inhibitory effect of synthetic peptides on APC anticoagulant activity. After the maintenance period, 100 μl of NHP and 100 μl APTT-reagent Thrombosil (Ortho Diagnostics, Raritan, N.J.) were admixed into each peptide admixture and maintained for 200 seconds at 37° C. to form a pre-coagulation admixture. In some experiments, PSDP was used in the place of NHP to determine the effect of Protein S on the assay system. Coagulation was then initiated by the admixture of 100 μl of 30 mM CaCl2 in TBS prewarmed to 37° C. to each of the pre-coagulation admixtures. The time for clot formation was measured by an Electra 700 Automatic Coagulation Timer (Medical Laboratory Automation, Inc., Mount Vernon, N.Y.). Each peptide's effect was determined in duplicate.
For peptides at a concentration of 500 μM that inhibited at least 50% of APC anticoagulant activity, analysis of dose-response was subsequently conducted.
For testing the inhibition of the synthetic peptides on APC activity described above, Xa-1-stage coagulation assays were also performed as described. See Seegers et al., Thrombosis Res., 13:233-243 (1978); Marlar et al., supra; and Walker et al., J. Biol. Chem., 265:1484-1489 (1990).

T1 sequence (P00740 47-191): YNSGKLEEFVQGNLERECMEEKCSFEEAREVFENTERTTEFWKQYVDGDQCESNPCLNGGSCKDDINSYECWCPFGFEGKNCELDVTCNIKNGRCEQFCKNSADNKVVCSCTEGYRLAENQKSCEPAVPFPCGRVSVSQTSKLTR
T1 sequence (P00740 227-461): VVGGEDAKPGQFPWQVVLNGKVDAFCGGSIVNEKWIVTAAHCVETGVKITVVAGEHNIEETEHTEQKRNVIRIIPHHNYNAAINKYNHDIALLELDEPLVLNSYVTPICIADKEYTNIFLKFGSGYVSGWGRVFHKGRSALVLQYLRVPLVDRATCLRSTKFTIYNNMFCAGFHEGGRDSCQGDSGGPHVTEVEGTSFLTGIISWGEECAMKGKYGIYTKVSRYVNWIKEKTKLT
Chain of Factor IXa (P00740 47-191 limits assumed): as the sequence (P00740 47-191) above
Chain of Factor IXa (P00740 227-461 limits assumed): as the sequence (P00740 227-461) above
Chain of APC (P04070 43-197 limits assumed): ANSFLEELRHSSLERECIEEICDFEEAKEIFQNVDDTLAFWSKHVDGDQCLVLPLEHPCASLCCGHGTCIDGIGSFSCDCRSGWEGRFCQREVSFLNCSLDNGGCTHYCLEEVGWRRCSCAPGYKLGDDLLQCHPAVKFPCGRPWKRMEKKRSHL
Chain of APC (P04070 212-450 limits assumed): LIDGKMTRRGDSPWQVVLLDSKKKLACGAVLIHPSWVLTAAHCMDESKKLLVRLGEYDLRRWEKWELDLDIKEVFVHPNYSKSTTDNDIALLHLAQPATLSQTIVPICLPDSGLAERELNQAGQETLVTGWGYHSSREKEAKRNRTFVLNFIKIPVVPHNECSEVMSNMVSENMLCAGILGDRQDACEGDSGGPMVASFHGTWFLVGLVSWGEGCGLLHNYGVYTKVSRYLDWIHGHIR

What is called IC50 is the midpoint of a concentration-inhibition curve. In the case of “YGIYTKVSRYVNWIK-NH2 [IX395-409, Tyr-Gly-Ile-Tyr-Thr-Lys-Val-Ser-Arg-Tyr-Val-Asn-Trp-Ile-Lys]”, the values for the half-maximal inhibitory concentration (IC50) against Factor IXa, on tenase (absence of VIIIa) and on tenase (presence of Factor VIIIa) were 25 µM, 40 to 60 µM and ~6 µM, respectively.

For the substance “LVLQYLRVPLVDRAT-NH2 [IX321-335, Leu-Val-Leu-Gln-Tyr-Leu-Arg-Val-Pro-Leu-Val-Asp-Arg-Ala-Thr]”, the IC50 against Factor IXa is 30 µM; at tenase (presence of Factor VIIIa), 100 to 140 µM.

Regarding “HKGRSALVLQYLRVPL-NH2 [IX315-330, His-Lys-Gly-Arg-Ser-Ala-Leu-Val-Leu-Gln-Tyr-Leu-Arg-Val-Pro-Leu]”, the IC50 against Factor IXa was 30 µM; at tenase (absence of VIIIa), 40 to 60 µM; at tenase (presence of Factor VIIIa), ~2 µM.

For NLKETWTANVGKGQP [PT463-478], the IC50 in the test with Factor Xa is > 500 µM.

“GKGQPSVLQVVNLPI-NH2 [PT473-487, Gly-Lys-Gly-Gln-Pro-Ser-Val-Leu-Gln-Val-Val-Asn-Leu-Pro-Ile]” had an IC50 against Factor Xa of 25 µM.

The substance “EKGRQSTRLKMLEVPY-NH2 [X329-344, Glu-Lys-Gly-Arg-Gln-Ser-Thr-Arg-Leu-Lys-Met-Leu-Glu-Val-Pro-Tyr]” registered an IC50 at Factor Xa of 500 µM.

“QVVNLPIVERPVSKD-NH2 [PT481-495, Gln-Val-Val-Asn-Leu-Pro-Ile-Val-Glu-Arg-Pro-Val-Ser-Lys-Asp]”: the IC50 against Factor Xa is > 500 µM.

On to “VTAFLKWIDRSMKTR-NH2 [X415-429, Val-Thr-Ala-Phe-Leu-Lys-Trp-Ile-Asp-Arg-Ser-Met-Lys-Thr-Arg]”, for which the values for the IC50 against Factor IXa, on tenase (presence of Factor VIIIa) and on Factor Xa were 30 µM, ~45 µM and 115 µM, respectively.

As to “ARKGKYGIYTKVTAF-NH2 [X404-418, Ala-Arg-Lys-Gly-Lys-Tyr-Gly-Ile-Tyr-Thr-Lys-Val-Thr-Ala-Phe]”, the values for the IC50 against Factor IXa, on tenase (presence of Factor VIIIa) and at Factor Xa were 50 µM, ~150 µM and 50 µM, respectively.

“YGFYTHVFRLKKWIQ-NH2 [PT557-571, Tyr-Gly-Phe-Tyr-Thr-His-Val-Phe-Arg-Leu-Lys-Lys-Trp-Ile-Gln]” came in with a concentration for half-maximal inhibition (IC50) against Factor Xa of 50 µM.

For “KVSRYVNWIKEKTKL-NH2 [IX400-414, Lys-Val-Ser-Arg-Tyr-Val-Asn-Trp-Ile-Lys-Glu-Lys-Thr-Lys-Leu]”, the results for the IC50 at Factor IXa and on tenase (presence of Factor VIIIa) were 50 µM and 100 to 140 µM, respectively.

As for VLNFIKIPVVPHNEC-NH2 [PC317-331], on APC, the IC90 came to 500 µM.
